# In article PMC12557367, ““Precision on Two Wheels”–Structural Refinement of ^64Cu- and ^68Ga-Labeled Bicyclic Peptides Targeting Nectin‑4 for Improved Tumor Imaging: From Preclinical Development to First-in-Human Application” (Journal of Medicinal Chemistry, 2025):
# Like-named read-outs stand apart in the source and are kept apart here. Numbered stars: 1 amine (or outer) side, 2 acyl side, 3 side chain; on linkers, the order of the positions; unused ones are H or OH. Bridge positions count the residues as written; N and C are the ends. Square brackets hold non-standard residues; d marks the D form. Peptide text beside a SMILES is read from it. * marks the point of attachment. DOTA = O=C(O)CN1CCN(CC(=O)O)CCN(CC(=O)*)CCN(CC(=O)O)CC1; TATA = O=C(CC[*:1])N1CN(C(=O)CC[*:2])CN(C(=O)CC[*:3])C1; X1 = O=C(O)CN1CCN(CC(=O)O)CCN([C@H](CCC(=O)*)C(=O)O)CC1; 1Nal = N[C@@H](Cc1cccc2ccccc12)C(=O)O; 2Nal = N[C@@H](Cc1ccc2ccccc2c1)C(=O)O; Hyp = O=C(O)[C@@H]1C[C@@H](O)CN1; hArg = N=C(N)NCCCC[C@H](N)C(=O)O; Met(O) = CS(=O)CC[C@H](N)C(=O)O; SeMet = C[Se]CC[C@H](N)C(=O)O
# What was measured:
# [1] = molecular target: T1, immobilized human nectin-4 (Homo sapiens, UniProt Q96NY8); experiment: SPR analysis of binding kinetics; settings: ±SEM
# T1 construct: close to the value determined for the complete extracellular domain of nectin-4 (0.94 nM); purchased R&D Systems 2659-N4
# T1 sequence (Q96NY8 32-349 limits assumed): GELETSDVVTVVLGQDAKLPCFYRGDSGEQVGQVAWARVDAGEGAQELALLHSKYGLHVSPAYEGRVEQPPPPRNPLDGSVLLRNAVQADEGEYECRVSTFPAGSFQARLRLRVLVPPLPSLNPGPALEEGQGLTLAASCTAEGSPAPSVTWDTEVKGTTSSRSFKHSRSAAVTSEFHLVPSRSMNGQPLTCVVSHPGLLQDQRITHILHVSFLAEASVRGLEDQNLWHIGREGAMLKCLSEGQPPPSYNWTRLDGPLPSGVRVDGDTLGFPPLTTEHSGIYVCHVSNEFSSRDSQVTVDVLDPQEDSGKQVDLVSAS
# Experimental: For this purpose, recombinant human nectin-4 was covalently immobilized on a CM5 sensor chip by EDC/NHS coupling. For analyses, the buffer composition (HBS-P+, pH 7.4) was similar to that of the FA assay; however, DMSO was completely omitted (1% DMSO for the FA assay).
# The SPR analyses were carried out on a Biacore T200 (GE Healthcare, Chicago, IL, USA) at 25 °C using CM5 sensor chips (Cytiva) and HBS-P+ as running buffer (Cytiva) at a flow of 30 μL/min unless otherwise specified and a data collection rate of 10 Hz. All flow cells (FC) were normalized, and functionalization was performed using an amine coupling Kit (Cytiva). […] Binding analyses were performed by a single-cycle kinetic on both FC. Two start-up cycles were performed at the beginning of each experimental set, comprising the injection of bicyclic peptide (50 nM) and analysis on both FC, followed by regeneration. Binding analysis for the bicyclic peptides was performed by consecutive injection of five increasing concentrations (120 s contact time for each concentration), followed by 600 s dissociation time and analysis on both FC. The regeneration was performed by sequential injection of 10 mM NaOAc (pH 5.5) for 60 s, washing the needle using HBS-P+, injection of 10 mM NaOAc (pH 5.5) for 60 s, 600 s waiting, four injections of HBS-P+ (60 s), and a final 600 s waiting for stabilization. Blank runs using only buffer (HBS-P+) instead of the sample were carried out to obtain double-referenced chromatograms. Binding analyses were performed unless otherwise stated in a concentration range between 0.16–100 nM and 1.6–1000 nM (5-fold dilution series) and analyzed in triplicate. The data were analyzed using the Biacore Evaluation software 3.2.1. […] Data were fitted to a 1:1 binding model.
# HT-1376 cells = experiment: Saturation binding assay on intact cells; type: cell-based, human; settings: ^68Ga-labeled ligand, intact HT-1376 cells, ±SD
# Experimental: For the saturation binding assay, total and nonspecific binding were determined as described above using 10 different radioligand concentrations ([…]) prepared by serial 1:1 dilution. Plots of “total binding” = f(radioligand) were analyzed by nonlinear regressions using the model of “one site-total, accounting for ligand depletion” as implemented in GraphPad Prism, and Plots of “nonspecific binding” = f(radioligand) were analyzed by linear regressions.
# [2] = n-Octanol/PBS distribution coefficient (logD 7.4); type: physicochemical
# Experimental: The determination of logD 7.4 was performed in triplicate. A sample of the ^64Cu/^68Ga-labeled compound containing ≈1 MBq in a volume of 1 μL was added to a 1.5 mL Eppendorf tube containing 400 μL of PBS (pH 7.4) and 400 μL of n-Octanol (the phases were presaturated with each other). The tube was vortexed vigorously for 1 min and then centrifuged at 16,100g for 4 min to separate the phases. For sampling from the aqueous phase, the pipette tip was discharged while passing through the octanol layer. Then, the sample was taken within the aqueous phase. Any residual liquid was carefully removed by moving the tip along the inner wall of an Eppendorf tube. The radioactivity in a defined volume of each layer was measured (ISOMED 2100). The distribution coefficient was expressed as the logarithm of the ratio of counts per minute (cpm) measured in the n-Octanol phase to the cpm measured in the PBS phase.
# [3] = molecular target: T2, recombinant human nectin-4 (Homo sapiens, UniProt Q96NY8); experiment: FA-based competitive binding assay with probe 1a; settings: for Hill coefficient n: competitive binding curve, variable slope
# T2 construct: close to the value determined for the complete extracellular domain of nectin-4 (0.94 nM); purchased R&D Systems 2659-N4
# T2 sequence (Q96NY8 32-349 limits assumed): T1 sequence (Q96NY8 32-349 limits assumed)
# Experimental: For the competitive binding assay, a constant concentration of probe 1a (1 nM) and of nectin-4 (20 nM) was used, and the concentration of the competitors was varied over at least 3 orders of magnitude. […] Analysis of the curves by nonlinear regression according to dose–response inhibition with variable slope, as implemented in GraphPad Prism (see Experimental section), provided the IC50 value for displacing the probe from nectin-4.
# All measurements were conducted at 37 °C over 1200 s (interval of 37 s) using a Cytation 5 multimode microplate reader (BioTek Instruments, Software Gen 5) and black 96-well microplates (BRANDplates with F-bottom wells). Experiments were conducted at an excitation wavelength of 540 nm and an emission wavelength of 620 nm. The FA (r) was calculated by Gen 5 software from the measured parallel and perpendicular fluorescence intensities (I ∥ and I ⊥, respectively) according to eq using a G factor of 0.87 (preset value). r=I∥−G×I⊥/I∥+2G×I⊥ 1
# All further data analyses were conducted with GraphPad Prism (version 10.4.1, GraphPad Software, San Diego, CA, USA). The assay mixture (100 μL) contained an aqueous solution (99 μL) and DMSO (1%, v/v, 1 μL).
# For the competitive binding assay, fixed concentrations of probe 1a (1 nM) and recombinant human nectin-4 (20 nM) and 10 concentrations of nonlabeled peptide (e.g., […] prepared as serial 1:1 dilution) were used (two separate experiments, each performed in duplicate). The corresponding stock solutions of 1a (2.5 nM) and nectin-4 (50 nM) were prepared in HEPES buffer, while the stock solutions of the nonlabeled peptides were prepared in 5% DMSO/HEPES buffer. nectin-4 (40 μL) and 1a (40 μL) were added to the wells, and the competition was started by the addition of the nonlabeled peptides (20 μL). The FA values were averaged over the time period of 1200 s, and plots of FA = f([peptide]) were analyzed by nonlinear regression according to the model “[inhibitor] vs. response – Variable slope (four parameters)” as implemented in GraphPad Prism. […] Therefore, the lower FA plateau was constrained to the FA value of probe 1a in the absence of nectin-4 and the competitor, which was recorded in each experiment.
# [4] = Oxidation stability in H2O2 (radio-HPLC)
# Experimental: To avoid a too rapid degradation of radiolabeled peptides, a low H2O2 concentration of 0.0012% was chosen. […] In this context, there are three further thioether functionalities in each peptide due to the cyclization of the Cys residues with TATA. In Figure , the curves for the time-dependent degradation of the intact radioligands are depicted, from which the respective half-lives were calculated.
# The stability toward oxidizing conditions was assessed with H2O2. For this purpose, the radioligands (2 nmol, 48 μL of labeling mixture) were treated with H2O2 (2 μL of 0.03%, final concentration of 0.0012%) at ambient temperature. At distinct time points (3, 5, and 7 h), an aliquot of 2 μL was withdrawn and diluted with 48 μL of a mixture named “Supersol,” which consists of 20% ethanol, 0.5% Triton X-100, 5 mM EDTA, 0.5 mM o-phenanthroline, and 0.1% saponin. […] The resulting solutions were analyzed by radio-HPLC (same system as that used for analyzing the ^64Cu-labelings).
# [5] = Small animal PET/CT imaging; parameters: species or system mice; settings: mouse, in vivo
# Experimental: (§1) All animal experiments were performed following the protocols evaluated and approved by the Landesdirektion Sachsen, Referat 25 – Veterinärwesen, Lebensmittelüberwachung and Pharmazie (09105 Chemnitz, Germany, ethics approval number: 25-5131/562/52). HT-1376- and 5637-derived tumor xenograft models were established in NMRI nude mice (Rj: NMRI-Foxn1nu/nu, Charles River Laboratories, Sulzfeld, Germany) by subcutaneous injection of 5 × 10^6 cells in 100 μL of PBS containing 50% (v/v) Matrigel (Corning Life Sciences, Amsterdam, The Netherlands).
# (§2) When the tumor volume reached 200 mm^3, PET experiments with radiotracers were performed. Radiolabeling of the ligands was performed as described previously with an apparent molar activity of 25 MBq/nmol. The radioligand stock solution (pH 6.5 – 7.5) was diluted in 0.9% NaCl, and 200 μL containing ∼9 MBq ([…]) was injected per mouse intravenously into a lateral tail vein. For blocking of target-specific radioligand binding, 75 nmol of blocking substance (1d) was administered simultaneously with the radioligand. Coincidences were recorded continuously in a 2 h PET-scan starting with the injection. Additionally, a CT scan was performed for anatomical referencing and attenuation correction. PET/CT imaging, reconstruction, and tissue delineation were carried out as described previously.
# [6] = tested on: HT-1376-derived tumor xenograft model; experiment: Small animal PET/CT imaging; parameters: species or system mice; settings: mouse, in vivo
# Experimental: as §1, §2
SMILES,"logD ([2]; pH 7.4, logD 7.4)",fold lower binding affinity compared to 1e ([3]; FA K d ratio),Hill coefficient n [3],half-life [4],half-life ([5]; Blood half life fast [min]),half-life ([5]; Blood half life slow [min]),other results
CSCC[C@@H]1NC(=O)[C@@H]2CSCCC(=O)N3CN(CN(C3)C(=O)CCSC[C@H](NC(=O)CN3CCN(CC(=O)O)CCN(CC(=O)O)CCN(CC(=O)O)CC3)C(=O)N3CCC[C@H]3C(=O)N[C@@H](Cc3ccc4ccccc4c3)C(=O)N[C@H](CC(=O)O)C(=O)N2)C(=O)CCSC[C@@H](C(N)=O)NC(=O)[C@H](Cc2c[nH]c3ccccc23)NC(=O)[C@@H]2C[C@@H](O)CN2C(=O)[C@@H]2CCCN2C(=O)[C@H]([C@@H](C)O)NC(=O)[C@H](CO)NC(=O)[C@H](Cc2c[nH]c3ccccc23)NC(=O)[C@H](CC(=O)O)NC(=O)[C@H](CCCNC(=N)N)NC1=O [8c] ({DOTA}-CP[2Nal][dD]CMRDWSTP[Hyp]WC-NH2; linker 1-5-15 via TATA),-2.79,213 fold,1.23,,,,"kon ([1]; HBS-P+ pH 7.4, 25 °C, read-out: k on (SPR, *10^6 M^–1 s^–1)): 20000 M⁻¹ s⁻¹; koff ([1]; pH 7.4, HBS-P+ pH 7.4, 25 °C, read-out: k off (SPR, *10^–3 s^–1)): 0.00239 s⁻¹; Kd (HT-1376 cells; 60 min, PBS wash, apparent): 103 nM; B max (fmol/mg) (HT-1376 cells): 799 (±136) fmol/mg; factor less potent than DOTA conjugate 1f ([3]; FA K d ratio): 21 fold"
"CSCC[C@@H]1NC(=O)[C@@H]2CSCCC(=O)N3CN(CN(C3)C(=O)CCSC[C@H](NC(=O)CC[C@H](C(=O)O)N3CCN(CC(=O)O)CCN(CC(=O)O)CC3)C(=O)N3CCC[C@H]3C(=O)N[C@@H](Cc3cccc4ccccc34)C(=O)N[C@H](CC(=O)O)C(=O)N2)C(=O)CCSC[C@@H](C(N)=O)NC(=O)[C@H](Cc2c[nH]c3ccccc23)NC(=O)[C@@H]2C[C@@H](O)CN2C(=O)[C@@H]2CCCN2C(=O)[C@H]([C@@H](C)O)NC(=O)[C@H](CO)NC(=O)[C@H](Cc2c[nH]c3ccccc23)NC(=O)[C@H](CC(=O)O)NC(=O)[C@H](CCCCNC(=N)N)NC1=O [[^64Cu]Cu-1e, metal not drawn]",-2.74,,,218 min,1.21 ± 0.21 min,32.5 ± 3.08 min,
"C[Se]CC[C@@H]1NC(=O)[C@@H]2CSCCC(=O)N3CN(CN(C3)C(=O)CCSC[C@H](NC(=O)CC[C@H](C(=O)O)N3CCN(CC(=O)O)CCN(CC(=O)O)CC3)C(=O)N3CCC[C@H]3C(=O)N[C@@H](Cc3cccc4ccccc34)C(=O)N[C@H](CC(=O)O)C(=O)N2)C(=O)CCSC[C@@H](C(N)=O)NC(=O)[C@H](Cc2c[nH]c3ccccc23)NC(=O)[C@@H]2C[C@@H](O)CN2C(=O)[C@@H]2CCCN2C(=O)[C@H]([C@@H](C)O)NC(=O)[C@H](CO)NC(=O)[C@H](Cc2c[nH]c3ccccc23)NC(=O)[C@H](CC(=O)O)NC(=O)[C@H](CCCCNC(=N)N)NC1=O [[^64Cu]Cu-5, metal not drawn] (X1-CP[1Nal][dD]C[SeMet][hArg]DWSTP[Hyp]WC-NH2; linker 1-5-15 via TATA)",,,,,,,"half-life ([4]; half-life of intact radiolabeled peptide (T1/2), 0.0012% H2O2, 25 °C, one-phase decay): 22.8 min; half-life ([4]; half-life of intact radiolabeled peptide, 0.0012% H2O2): 23 min; logD ([2]; ^64Cu-labeled ligand, n-octanol/PBS pH 7.4, ±SD, read-out: logD 7.4): -2.37"
"CSCC[C@@H]1NC(=O)[C@@H]2CSCCC(=O)N3CN(CN(C3)C(=O)CCSC[C@H](NC(=O)CC[C@H](C(=O)O)N3CCN(CC(=O)O)CCN(CC(=O)O)CC3)C(=O)N3CCC[C@H]3C(=O)N[C@@H](Cc3ccc4ccccc4c3)C(=O)N[C@H](CC(=O)O)C(=O)N2)C(=O)CCSC[C@@H](C(N)=O)NC(=O)[C@H](Cc2c[nH]c3ccccc23)NC(=O)[C@@H]2C[C@@H](O)CN2C(=O)[C@@H]2CCCN2C(=O)[C@H]([C@@H](C)O)NC(=O)[C@H](CO)NC(=O)[C@H](Cc2c[nH]c3ccccc23)NC(=O)[C@H](CC(=O)O)NC(=O)[C@H](CCCNC(=N)N)NC1=O [[^64Cu]Cu-8a, metal not drawn] (X1-CP[2Nal][dD]CMRDWSTP[Hyp]WC-NH2; linker 1-5-15 via TATA)",,,,242 min,1.27 ± 0.13 min,35.9 ± 2.08 min,Percent fast [%] [6]: 84.87 ±1.35%; body retention at 2 h p.i. [6]: 40–42%; time of highest tumor uptake [6]: ≈ 6 min
C[C@@H](O)[C@@H]1NC(=O)[C@H](CO)NC(=O)[C@H](Cc2c[nH]c3ccccc23)NC(=O)[C@H](CC(=O)O)NC(=O)[C@H](CCCCNC(=N)N)NC(=O)[C@H](CC[S+](C)[O-])NC(=O)[C@@H]2CSCCC(=O)N3CN(CN(C3)C(=O)CCSC[C@H](NC(=O)CC[C@H](C(=O)O)N3CCN(CC(=O)O)CCN(CC(=O)O)CC3)C(=O)N3CCC[C@H]3C(=O)N[C@@H](Cc3cccc4ccccc34)C(=O)N[C@H](CC(=O)O)C(=O)N2)C(=O)CCSC[C@@H](C(N)=O)NC(=O)[C@H](Cc2c[nH]c3ccccc23)NC(=O)[C@@H]2C[C@@H](O)CN2C(=O)[C@@H]2CCCN2C1=O (stereo partly drawn) [compound 2] (X1-CP[1Nal][dD]C[Met(O)][hArg]DWSTP[Hyp]WC-NH2; linker 1-5-15 via TATA),-2.51,34 fold,1.07,,,,
